Source: patent US12599640B2, “Lactobacillus plantarum ZUST49 and bacterial agent, and use thereof” (ZHEJIANG UNIVERSITY OF SCIENCE AND TECHNOLOGY, priority 2023, dated 2026)

Assay: Production of sulforaphane by feeding mice with enteric capsule (plasma sulforaphane, cyclocondensation method)
Type: in vivo
Details: mouse plasma; intragastric glucoraphanin aqueous solution, 150 μmol of glucoraphanin/kg; blood taken at 0 h and 12 h
Excerpt: C57BL/6 male mice of 6 to 8 weeks were pre-reared for 1 week and randomly divided into an enteric capsule group, a glucoraphanin group, and a blank group. Mice in the enteric capsule group were intragastrically administered daily with an enteric capsule aqueous solution containing Lactobacillus plantarum ZUST49 and glucoraphanin (150 μmol of glucoraphanin/kg and ZUST49 content of 8.7×10^5 CFU/g, and prepared according to the method of example 3). The mice in the glucoraphanin group were intragastrically administrated with a glucoraphanin aqueous solution (150 μmol of glucoraphanin/kg). The mice were fed with food and water ad libitum. Food intake and weight were recorded daily. The mice were deeply anesthetized with an intraperitoneal injection of ketamine/xylazine (87 mg/mL and 13 mg/mL respectively, and 0.1 mL/100 g mice) at 0 h and 12 h (6 mice/group each time period), and put to death by cervical dislocation after blood collection by cardiac puncture. The sulforaphane content in plasma of the mice was determined by a cyclocondensation method.

C[S+]([O-])CCCC/C(=N\OS(=O)(=O)O)S[C@@H]1O[C@H](CO)[C@@H](O)[C@H](O)[C@H]1O (stereo partly shown) [glucoraphanin]
sulforaphane content in the plasma of the mice: 0.017 ± 0.030 µM
